These results are taken from US20250313574A1, “SIALIC ACID DERIVATIVES AND METHODS OF USING SAME” (EISAI R&D MANAGEMENT CO., LTD., priority 2022, published 2025).

SMILES strings stand for the structures. Where “and” joins values, the source holds several entries; their conditions need not be identical. Equal values may be shown once. Read-outs that look alike come from different tables or passages of the source.

For series [1] the following is noted: rcm bond, Hoveyda-Grubbs II/quinone, toluene.
Series [2] has as its target recombinant human CD33 (Siglec-3, sialic acid binding Ig-like lectin 3) protein (Homo sapiens (Human), UniProt P20138). Nature of the series: Differential Scanning Fluorimetry (DSF, Protein Thermal Shift Assay). Particulars: 50 μM of A-001; CD33 alone melts at approximately 55° C. On the procedure: FIG. 1 depicts thermograms (A) and derivative curves (B) of His-CD33 (gray) and His-CD33 with A-001 (blue).
Differential Scanning Fluorimetry (also known as DSF, Protein Thermal Shift Assay, Thermofluor Assay) was used to measure and compare the thermal melt or thermal denaturation temperature of recombinant human CD33 (Siglec-3, sialic acid binding Ig-like lectin 3) protein in the presence of 50 μM of A-001. In the absence of any compound, the CD33 protein has a thermal melt at approximately 55° C. under the method conditions described in this report.

Series [3] deals with Recombinant Human Siglec-3/CD33 protein (His-CD33) (Homo sapiens (Human), UniProt P20138). Nature of the series: Differential scanning fluorimetry (DSF) thermal shift assay. In kind it is binding. Background: In DSF a fluorescence change marks the thermal transition of the protein.
For series [4], the target named is Recombinant human CD33 protein (Homo sapiens (Human), UniProt P20138). Description: CD33 competitive binding assay for HTS drug screen (fluorescent multivalent sialic acid probe). The procedure, abridged:
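Recombinant human CD33, coated overnight at 4° C from 10 μg/ml in pH 5.5 acetate, was preincubated briefly with compound. It was then exposed to a multivalent neutravidin/FITC/sialic acid analog A-375 probe (final 5 μM neutravidin, 15 μM A-375, 5 μM FITC) for 30 min at room temperature. After washing, bound FITC fluorescence was read.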

Recombinant Human Siglec-3/CD33 protein (His-CD33), sequence (P20138 18-259): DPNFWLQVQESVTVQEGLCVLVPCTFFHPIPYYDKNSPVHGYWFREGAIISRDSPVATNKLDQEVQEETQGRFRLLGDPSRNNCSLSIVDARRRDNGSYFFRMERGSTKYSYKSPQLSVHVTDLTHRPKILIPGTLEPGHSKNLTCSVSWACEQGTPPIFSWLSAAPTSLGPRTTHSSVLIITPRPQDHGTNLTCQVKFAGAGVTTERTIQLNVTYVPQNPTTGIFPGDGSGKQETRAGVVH
Recombinant human CD33 protein, sequence (P20138 18-259): as above
recombinant human CD33 (Siglec-3, sialic acid binding Ig-like lectin 3) protein, sequence (P20138 18-259): as above

The compound `COC(=O)[C@]12CC=CCOC[C@@H](NC(=O)OC(C)(C)C)COCCCOc3c(C)cc(cc3C)C(=O)NC[C@@H](OC(C)=O)[C@@H](OC(C)=O)[C@H](O1)[C@H](NC(C)=O)[C@@H](OC(C)=O)C2` registered a ring closure, isolated yield in series [1] (from C=CCOC[C@H](COCCCOc1c(C)cc(C(=O)NC[C@@H](OC(C)=O)[C@@H](OC(C)=O)[C@@H]2O[C@@](CC=C)(C(=O)OC)C[C@H](OC(C)=O)[C@H]2NC(C)=O)cc1C)NC(=O)OC(C)(C)C, 25-membered ring, 1.12 mM, 100.0 °C, 3.0 h) of 84%.

The ΔTm is the change in melting temperature against a reference sample. Broadly, the EC50 is the concentration at which the effect is half-maximal. As to `CC(=O)N[C@H]1[C@H]([C@H](O)[C@H](O)CNC(=O)c2cc(C)c(O)c(C)c2)O[C@@](CCN2CCOC[C@@]23CCN(C(=O)OC(C)(C)C)C3)(C(=O)O)C[C@@H]1O` [A-001], in series [2], the “increase in thermal melt (dTm D) of CD33 protein” value worked out at 12.2±0.7 °C. Further, the “ΔTm D (° C.)” value in series [3] (50 μM compound, 0.5 μM CD33 protein, pH 7.4, individual determinations) is 11.9 °C and 12.9 °C. Also, the ΔTm at 50 µM in series [3] (50 μM compound, 0.5 μM CD33 protein, pH 7.4, individual determinations, read-out: ΔTm D (° C.)) was 12.2 °C; in series [3] (50 μM compound, 0.5 μM CD33 protein, pH 7.4, read-out: Median ΔTm D (° C.)), 12.2 ± 0.7 °C. Further, in series [3] (thermal melt shift of 0.5 μM CD33 protein with 50 μM compound), the “DSF (dTmD)” value amounted to 12.9. Moreover, in series [4], the EC50 came to 15 nM.

For `COC(=O)[C@]12CC=CCOC[C@@H](NC(=O)C3CCCOC3)COCCOc3c(C)cc(cc3C)C(=O)NC[C@@H](OC(C)=O)[C@@H](OC(C)=O)[C@H](O1)[C@H](NC(=O)OC(C)(C)C)[C@@H](OC(C)=O)C2` (stereo partly shown), the ring closure, isolated yield in series [1] (from C=CCOC[C@H](COCCOc1c(C)cc(C(=O)NC[C@@H](OC(C)=O)[C@@H](OC(C)=O)[C@@H]2O[C@@](CC=C)(C(=O)OC)C[C@H](OC(C)=O)[C@H]2NC(=O)OC(C)(C)C)cc1C)NC(=O)C1CCCOC1, 24-membered ring, 1.05 mM, 80.0 °C, 3.0 h) was 60%.

In the case of `COC(=O)[C@]12CC=Cc3cccc(c3)[C@@H](NC(=O)C3CCCOC3)CCCCc3cc(cc(Cl)c3OC(C)=O)C(=O)NC[C@@H](OC(C)=O)[C@@H](OC(C)=O)[C@H](O1)[C@H](NC(=O)OC(C)(C)C)[C@@H](OC(C)=O)C2` (stereo partly shown), the ring closure, isolated yield in series [1] (from C=CC[C@]1(C(=O)OC)C[C@H](OC(C)=O)[C@@H](NC(=O)OC(C)(C)C)[C@H]([C@H](OC(C)=O)[C@@H](CNC(=O)c2cc(Cl)c(OC(C)=O)c(CCCC[C@H](NC(=O)C3CCCOC3)c3cccc(C=C)c3)c2)OC(C)=O)O1, 22-membered ring, 1.3 mM, 88.0 °C, 0.5 h) is 57%; in series [1] (from C=CC[C@]1(C(=O)OC)C[C@H](OC(C)=O)[C@@H](NC(=O)OC(C)(C)C)[C@H]([C@H](OC(C)=O)[C@@H](CNC(=O)c2cc(Cl)c(OC(C)=O)c(CCCC[C@H](NC(=O)C3CCCOC3)c3cccc(C=C)c3)c2)OC(C)=O)O1, 1.3 mM, 88.0 °C, 0.5 h), 16%.
